Read-outs that look alike come from different tables or passages of the source.
Key:
[1] = system: stable HCV 1b RLuc replicon cells (dicistronic genotype 1b Con1 replicon); experiment: Renilla luciferase HCV replicon reporter assay, genotype 1b; format: cell-based; details: Hepatitis C virus, 72 h, stable 1b Con1 RLuc replicon cells, 72 hours; read-out: 1b
Experimental: (§1) Evaluation of Cell-Based Anti-HCV Activity:
(§2) Antiviral potency (EC50) was determined using a Renilla luciferase (RLuc)-based HCV replicon reporter assay. To perform the assay for genotype 1 and 2a JFH-1, stable HCV 1a RLuc replicon cells (harboring a dicistronic genotype 1a H77 replicon that encodes a RLuc reporter), stable HCV 1b RLuc replicon cells (harboring a dicistronic genotype 1b Con1 replicon that encodes a RLuc reporter), or stable HCV 2a JFH-1 Rluc replicon cells (harboring a dicistronic genotype 2a JFH-1 replicon that encodes a RLuc reporter; with L31 present in NS5A) were dispensed into 384-well plates for EC50 assays. To perform the assay for genotype 2a (with M31 present in NS5A) or 2b, NS5A chimeric genotype 2a JFH-1 replicons that encodes a RLuc-Neo reporter and either genotype 2a J6 strain NS5A gene or genotype 2b MD2b-1 strain NS5A gene (both with M31 present) respectively, were either transiently transfected (t) into Huh-Lunet cells or were established as stably replicating replicon cells (s) is provided. Either cells were dispensed into 384-well plates for EC50 assays. To perform the assay for genotype 3 and 4, NS5A chimeric genotype 1b Con1 replicons that encodes a Pi-RLuc reporter and either genotype 3a S52 strain NS5A gene or genotype 4a ED43 strain NS5A gene respectively, were transiently transfected (t) into Huh-Lunet cells, which were subsequently dispensed into 384-well plates. Compounds were dissolved in DMSO at a concentration of 10 mM and diluted in DMSO either manually or using an automated pipeting instrument. Serially 3-fold diluted compounds were either manually mixed with cell culture media and added to the seeded cells or directly added to the cells using an automated instrument. DMSO was used as a negative (solvent; no inhibition) control, and the protease inhibitor ITMN-191 was included at a concentration>100×EC50 as a positive control. 72 hours later, cells were lysed and Renilla luciferase activity quantified as recommended by the manufacturer (Promega-Madison, Wis.). Non-linear regression was performed to calculate EC50 values.

[2] = system: stable HCV 1a RLuc replicon cells (dicistronic genotype 1a H77 replicon); experiment: Renilla luciferase HCV replicon reporter assay, genotype 1a; format: cell-based; details: Hepatitis C virus, 72 h, stable 1a H77 RLuc replicon cells
Experimental: as §1, §2

[3] = system: stable HCV 2a JFH-1 Rluc replicon cells (L31 present in NS5A); experiment: Renilla luciferase HCV replicon reporter assay, genotype 2a JFH-1; format: cell-based; details: Hepatitis C virus
Experimental: as §1, §2

[4] = system: NS5A chimeric genotype 2a JFH-1 replicon with genotype 2a J6 strain NS5A gene (M31 present); experiment: Replicon assay, genotype 2a J6 NS5A chimera; format: cell-based, HCV; details: Hepatitis C virus
Experimental: as §1, §2

[5] = system: NS5A chimeric genotype 2a JFH-1 replicon with genotype 2b MD2b-1 strain NS5A gene (M31 present); experiment: Replicon assay, genotype 2b NS5A chimera; format: cell-based, HCV; details: Hepatitis C virus
Experimental: as §1, §2

[6] = system: NS5A chimeric genotype 1b Con1 replicon with genotype 3a S52 strain NS5A gene; experiment: Replicon assay, genotype 3a NS5A chimera; format: cell-based, HCV; details: Hepatitis C virus
[7] = system: NS5A chimeric genotype 1b Con1 replicon with genotype 4a ED43 strain NS5A gene; experiment: Replicon assay, genotype 4a NS5A chimera; format: cell-based, HCV; details: Hepatitis C virus
[8] = read-out: 2a JFH (nM), genotype 2a JFH-1 replicon (L31 in NS5A), stable cells
[9] = read-out: 2a JFH, stable 2a JFH-1 Rluc replicon cells, L31 in NS5A, activity range
[10] = read-out: 2a J6 (t) (nM), genotype 2a J6 NS5A chimeric replicon (M31), transiently transfected (t) into Huh-Lunet cells
[11] = read-out: 2a J6 (t), transiently transfected (t) into Huh-Lunet cells, activity range
[12] = 2BS, read-out: 2b (s), stably replicating replicon cells (s), activity range
[13] = read-out: 2b (s) (nM), genotype 2b MD2b-1 NS5A chimeric replicon (M31), stably replicating replicon cells (s)
[14] = read-out: 3a (s) (nM), genotype 3a NS5A chimeric replicon, stable replicon cells (s)
[15] = read-out: 3a (s), (s), activity range
[16] = read-out: 4a (s) (nM), genotype 4a NS5A chimeric replicon, stable replicon cells (s)
[17] = read-out: 4a (s), (s), activity range

| SMILES | EC50 [1] | EC50 [2] | EC50 ([2]; activity range) | EC50 [3, 8] | EC50 [3, 9] | EC50 [4, 10] | EC50 [4, 11] | EC50 [5, 12] | EC50 [5, 13] | EC50 ([5]; read-out: 2b (t) (nM), genotype 2b MD2b-1 NS5A chimeric replicon (M31), transiently transfected (t)) | EC50 ([5]; read-out: 2b (t), transiently transfected (t) into Huh-Lunet cells, activity range) | EC50 [6, 14] | EC50 [6, 15] | EC50 [7, 16] | EC50 [7, 17] | EC50 ([6]; read-out: 3a (t) (nM), genotype 3a NS5A chimeric replicon, transiently transfected (t)) | EC50 ([6]; read-out: 3a (t), transiently transfected (t) into Huh-Lunet cells, activity range) |
| --- | --- | --- | --- | --- | --- | --- | --- | --- | --- | --- | --- | --- | --- | --- | --- | --- | --- |
| COC(=O)N[C@H](C(=O)N1C[C@@H](C)C[C@H]1c1ncc(-c2ccc3c(c2)COc2cc4c(ccc5nc([C@@H]6CC[C@H](C)N6C(=O)[C@@H](NC(=O)OC)[C@@H](C)OC)[nH]c54)cc2-3)[nH]1)[C@@H](C)OC [DZ, Methyl [(2S,3R)-3-methoxy-1-{(2S,5S)-2-[9-(2-{(2S,5S)-1-[N-(methoxycarbonyl)-O-methyl-L-threonyl]-4-methylpyrrolidin-2-yl}-1H-imidazol-5-yl)-1,11-dihydroisochromeno[4′,3′:6,7]naphtho[1,2-d]imidazol-2-yl]-5-methylpyrrolidin-1-yl}-1-oxobutan-2-yl]carbamate] | 0.035 nM | 0.021 nM | < 0.1 nM | 0.016 nM | < 0.1 nM | 0.054 nM | < 0.1 nM | 0.1 to 0.999 nM | 0.173 nM | 0.072 nM | < 0.1 nM | 0.089 nM | < 0.1 nM | 0.02 nM | < 0.1 nM | – | – |
| CC[C@H](C)[C@H](NC(=O)OC)C(=O)N1[C@@H](C)CC[C@H]1c1ncc(-c2ccc3c(c2)COc2cc4c(ccc5nc([C@@H]6CC[C@H](C)N6C(=O)[C@@H](NC(=O)OC)[C@@H](C)CC)[nH]c54)cc2-3)[nH]1 [EC, Methyl {(2S,3S)-1-[(2S,5S)-2-(9-{2-[(2S,5S)-1-{(2S,3S)-2-[(methoxycarbonyl)amino]-3-methylpentanoyl}-5-methylpyrrolidin-2-yl]-1H-imidazol-5-yl}-1,11-dihydroisochromeno[4′,3′:6,7]naphtho[1,2-d]imidazol-2-yl)-5-methylpyrrolidin-1-yl]-3-methyl-1-oxopentan-2-yl}carbamate] | 0.017 nM | 0.008 nM | < 0.1 nM | 0.015 nM | < 0.1 nM | 0.429 nM | 0.1 to 0.999 nM | 0.1 to 0.999 nM | 0.4 nM | – | – | 0.029 nM | < 0.1 nM | 0.004 nM | < 0.1 nM | – | – |
| CC[C@H](C)[C@H](NC(=O)OC)C(=O)N1C[C@@H](COC)C[C@H]1c1nc2ccc3cc4c(cc3c2[nH]1)OCc1cc(-c2cnc([C@@H]3CC[C@H](C)N3C(=O)[C@@H](NC(=O)OC)[C@@H](C)OC)[nH]2)ccc1-4 [ED, methyl{(2S,3S)-1-[(2S,4S)-2-(9-{2-[(2S,5S)-1-{(2S,3R)-3-methoxy-2-[(methoxycarbonyl)amino]butanoyl}-5-methylpyrrolidin-2-yl]-1H-imidazol-5-yl}-1,11-dihydroisochromeno[4′,3′:6,7]naphtho[1,2-d]imidazol-2-yl)-4-(methoxymethyl)pyrrolidin-1-yl]-3-methyl-1-oxopentan-2-yl}carbamate] | 0.029 nM | 0.015 nM | < 0.1 nM | 0.011 nM | < 0.1 nM | 0.021 nM | < 0.1 nM | 0.1 to 0.999 nM | 0.241 nM | – | – | 0.099 nM | < 0.1 nM | 0.025 nM | < 0.1 nM | – | – |
| COC[C@H]1C[C@@H](c2nc3ccc4cc5c(cc4c3[nH]2)OCc2cc(-c3cnc([C@@H]4CC[C@H](C)N4C(=O)[C@@H](NC(=O)OC)C(C)C)[nH]3)ccc2-5)N(C(=O)[C@@H](NC(=O)OC)C2CCOCC2)C1 [EF, methyl[(1 S)-2-[(2S,4S)-2-(9-{2-[(2S,5S)-1-{(2S)-2-[(methoxycarbonyl)amino]-3-methylbutanoyl}-5-methylpyrrolidin-2-yl]-1H-imidazol-5-yl}-1,11 dihydroisochromeno[4′,3′:6,7]naphtho[1,2-d]imidazol-2-yl)-4-(methoxymethyl)pyrrolidin-1-yl]-2-oxo-1-(tetra hydro-2H-pyran-4-yl)ethyl]carbamate] | 0.053 nM | 0.039 nM | < 0.1 nM | 0.014 nM | < 0.1 nM | 0.023 nM | < 0.1 nM | < 0.1 nM | 0.091 nM | – | – | 0.12 nM | 0.1 to 0.999 nM | 0.02 nM | < 0.1 nM | 0.102 nM | 0.1 to 0.999 nM |
| COC[C@H]1C[C@@H](c2ncc(-c3ccc4c(c3)COc3cc5c(ccc6nc([C@@H]7CC[C@H](C)N7C(=O)[C@@H](NC(=O)OC)C(C)C)[nH]c65)cc3-4)[nH]2)N(C(=O)[C@@H](NC(=O)OC)C2CCOCC2)C1 [GI, Methyl [(2S)-1-{(2S,4S)-2-[9-(2-{(2S,5S)-1-[(2S)-2-[(methoxycarbonyl)amino]-2-(tetrahydro-2H-pyran-4-yl)acetyl]-4-(methoxymethyl)pyrrolidin-2-yl}-1H-imidazol-5-yl)-1,11-dihydroisochromeno[4′,3′:6,7]naphtho[1,2-d]imidazol-2-yl]-5-methylpyrrolidin-1-yl}-3-methyl-1-oxobutan-2-yl]carbamate] | 0.064 nM | 0.055 nM | < 0.1 nM | 0.025 nM | < 0.1 nM | – | – | 0.1 to 0.999 nM | 0.193 nM | – | – | 0.126 nM | 0.1 to 0.999 nM | 0.022 nM | < 0.1 nM | – | – |
| CC[C@H]1CC[C@@H](c2ncc(-c3ccc4c(c3)COc3cc5c(ccc6nc([C@@H]7CC[C@H](C)N7C(=O)[C@@H](NC(=O)OC)[C@@H](C)CC)[nH]c65)cc3-4)[nH]2)N1C(=O)C(NC(=O)OC)C1CCOCC1 (stereo partly shown) [IJ] | 0.029 nM | 0.027 nM | < 0.1 nM | 0.012 nM | < 0.1 nM | – | – | 0.1 to 0.999 nM | 0.212 nM | – | – | 0.127 nM | 0.1 to 0.999 nM | 0.036 nM | < 0.1 nM | – | – |
| CC[C@H]1CC[C@@H](c2ncc(-c3ccc4c(c3)COc3cc5c(ccc6nc([C@@H]7CC[C@H](C)N7C(=O)[C@@H](NC(=O)OC)C7CCOCC7)[nH]c65)cc3-4)[nH]2)N1C(=O)[C@@H](NC(=O)OC)[C@@H](C)CC [IM] | 0.04 nM | 0.033 nM | < 0.1 nM | 0.016 nM | < 0.1 nM | – | – | 0.1 to 0.999 nM | 0.212 nM | – | – | 0.15 nM | 0.1 to 0.999 nM | 0.043 nM | < 0.1 nM | – | – |
| CC[C@H]1CC[C@@H](c2nc3ccc4cc5c(cc4c3[nH]2)OCc2cc(-c3cnc([C@@H]4C[C@@H]6CCC[C@@H]6N4C(=O)[C@@H](NC(=O)OC)[C@@H](C)CC)[nH]3)ccc2-5)N1C(=O)[C@@H](NC(=O)OC)C1CCOCC1 [IX] | 0.052 nM | 0.035 nM | < 0.1 nM | 0.024 nM | < 0.1 nM | – | – | 0.1 to 0.999 nM | 0.236 nM | – | – | 0.246 nM | 0.1 to 0.999 nM | 0.057 nM | < 0.1 nM | – | – |

— patent US10800789B2, “Antiviral compounds” (Gilead Pharmasset LLC, priority 2012, dated 2020)
